Test results from ChEMBL document CHEMBL6074705, “Novel Triazines as NLRP3 Inhibitors for Treating Multiple Diseases” (ACS Med Chem Lett, 2024).

Assay: Inhibition of NLRP3 inflammasome activation in PMA-treated human THP-1 cells assessed as ASC-SPECK formation preincubated for 1 hr followed by gramicidin addition and measured after 3 hrs by immunofluorescence staining based assay
Type: cell-based

EC50 [nM]	SMILES
5	CCN1CC[C@@]2(C)CCN(c3nnc(-c4ccc(C(F)(F)F)cc4O)c(C)n3)[C@@]2(C)C1
5	Cc1cc(O)c(-c2nnc(N3CC[C@]4(C)CCN(C)C[C@]34C)nc2C)c(F)c1
5	Cc1nc(N2CC[C@]3(C)CCN(C)C[C@]23C)nnc1-c1ccc(OC(F)(F)F)cc1O
5	Cc1nc(N2CC[C@]3(C)CCN(C)C[C@]23C)nnc1-c1ccc(C(F)(F)F)cc1O
7	Cc1nc(N2CC[C@]3(C)CCN(C)C[C@]23C)nnc1-c1ccc(C2CC2)cc1O
4	Cc1nc(N2CC[C@]3(C)CCN(C)C[C@]23C)nnc1-c1ccc(Cl)cc1O
